# According to paper PMC10490044, “Chromogenic Assay Is More Efficient in Identifying α-Amylase Inhibitory Properties of Anthocyanin-Rich Samples When Compared to the 3,5-Dinitrosalicylic Acid (DNS) Assay” (Molecules, 2023):
# Where two headings read alike, the source gives them in different places.
# What was measured:
# pancreatic alpha-amylase = settings: cited from earlier work
# human salivary amylase = settings: reference not given; cited from earlier work
# [1] = target: T1, porcine pancreatic α-amylase (PPA) (Sus scrofa, UniProt P00690); settings: cited from earlier work; for mode of inhibition: DNS method; for IC50: ref Sui, Zhang, and Zhou 35
# T1 construct: purchased Sigma-Aldrich Co., Ltd., Dorset, UK
# T1 sequence (P00690 16-511): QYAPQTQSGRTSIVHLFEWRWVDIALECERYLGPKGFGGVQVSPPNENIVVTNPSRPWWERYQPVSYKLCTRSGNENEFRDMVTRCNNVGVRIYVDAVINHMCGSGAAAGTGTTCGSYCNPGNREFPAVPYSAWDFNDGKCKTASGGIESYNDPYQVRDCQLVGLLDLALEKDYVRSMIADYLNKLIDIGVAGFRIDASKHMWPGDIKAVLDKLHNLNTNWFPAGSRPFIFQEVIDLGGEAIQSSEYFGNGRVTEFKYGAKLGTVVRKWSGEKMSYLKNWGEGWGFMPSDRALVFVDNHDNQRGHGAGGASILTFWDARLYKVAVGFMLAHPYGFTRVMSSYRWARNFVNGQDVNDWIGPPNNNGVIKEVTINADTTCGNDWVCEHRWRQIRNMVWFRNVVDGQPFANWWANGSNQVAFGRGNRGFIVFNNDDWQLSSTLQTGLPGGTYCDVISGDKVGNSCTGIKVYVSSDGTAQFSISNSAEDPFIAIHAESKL
# [2] = target: T1, porcine pancreatic α-amylase (PPA); assay: DNS assay, amylose as substrate; assay type: biochemical; settings: concentrations up to 435 μM
# Method: The samples were then placed in a water bath (100 °C, 10 min) to stop the enzyme reaction, subsequently transferred to ice, cooled down, and centrifuged at 4000× g for 5 min.
# In order to remove potentially interfering compounds such as anthocyanins and other polyphenols that might react with the DNS reagent, solid phase reaction (SPE) was applied [20]. Briefly, Oasis MAX cartridges (30 mg) were preconditioned (1 mL water, 1 mL methanol) and then dried under vacuum for 10 min. The samples that underwent the enzymatic reaction above were applied to the cartridge, and the flow through was collected. Then, 1 mL DNS reagent was added to each SPE-purified flow through sample (500 μL), and samples were heated for 10 min at 100 °C to aid the reaction. Subsequently, samples were cooled down to room temperature, diluted to an appropriate absorbance range, transferred to wells in 96-well plates (2 × 250 µL per sample), and absorbance was recorded at 540 nm using Tecan Spark 10 M multimode microplate reader (TECAN, Mannedorf, Switzerland). Enzyme inhibition was calculated as a percentage of the 100% activity control (absence of inhibitor) and considering individual sample background (absence of enzyme and substrate).
# [3] = target: T1, porcine pancreatic α-amylase (PPA); assay: Direct chromogenic assay, CNPG3 as substrate; assay type: biochemical
# Method: The inhibition of α-amylase activity was measured according to the method described by Kalita, Holm, LaBarbera, Petrash, and Jayanty with some modifications. […] This was followed by the addition of 50 µL of 2 mM CNPG3 substrate, diluted in phosphate buffer. The change in absorbance, indicating the release of p-nitrophenol as a reaction product, was recorded in 1 min intervals at 405 nm over a 10 min period (at 37 °C) using a Tecan Spark 10 M microplate reader. Reaction product scans (360–600 nm) were performed at the end of each experiment. Enzyme activity and inhibition (%) were calculated from the absorbance difference of each sample, in reference to the non-inhibited control.
# (§1) In preliminary experiments, the optimum enzyme and substrate concentrations for the assay were determined using different concentrations of α-amylase (0.25, 0.5, and 1 U/mL) and CNPG3 (0, 0.625, 1.25, 2.5, and 5 mM). The linearity of enzyme reaction was monitored over 20 min under optimized enzyme and substrate concentrations, and incubation time for enzymatic reaction was defined. […] The rate of enzymatic reaction (V) was calculated by dividing the change in absorbance (at 405 nm) over time. The Lineweaver–Burk double reciprocal plot was obtained by plotting the 1/V against reciprocal of substrate (1/[S]), and Km and Vmax were calculated.
# α-amylase = target: T2, α-amylase (Sus scrofa, UniProt P00690); assay: α-Amylase inhibition by anthocyanin metabolites (assay not stated); assay type: biochemical; settings: high concentrations of 1000 μg/mL
# T2 construct: purchased Sigma-Aldrich Co., Ltd., Dorset, UK
# T2 sequence (P00690 16-511): T1 sequence (P00690 16-511)
# [4] = target: T3, pancreatic α-amylase (PPA) (Sus scrofa, UniProt P00690); assay: Mode of inhibition / enzyme kinetics, Lineweaver–Burk plots with CNPG3; assay type: biochemical, porcine; settings: for mode of inhibition: CNPG3 0–5 mM, PPA 1 U/mL; for effect of inhibitor on Vmax: Lineweaver–Burk plot
# T3 construct: purchased Sigma-Aldrich Co., Ltd., Dorset, UK
# T3 sequence (P00690 16-511): T1 sequence (P00690 16-511)
# Method: as §1
# A Lineweaver–Burk plot was constructed for every inhibitor, and Km and Vmax were calculated.
# All experiments were conducted at least in triplicates and analysed using Prism software program v. 9 (GraphPad Software, San Diego, CA, USA). […] The IC50 values were then obtained from the respective curve. The mode of enzyme inhibition was graphically determined using the Lineweaver–Burk plot through nonlinear regression of all data sets at once using GraphPad Prism software.
# human pancreatic amylase = target: human pancreatic amylase; design: method as in Xie et al. 28; settings: similar substrate; ref Xie et al. 28; cited from earlier work
# [5] = extracts per total anthocyanin content
structure (smiles),measurement,setting,value
OC[C@H]1O[C@@H](Oc2cc3c(O)cc(O)cc3[o+]c2-c2ccc(O)c(O)c2)[C@H](O)[C@@H](O)[C@@H]1O [cyanidin-3-glucoside],"IC50, DNS assay",pancreatic alpha-amylase; ref 27,145.5 µg/mL
same,IC50,human salivary amylase,180 ± 20 µM
same,mode of inhibition,[1],competitively
same,IC50,[1],24 ± 3 µM
"OC[C@H]1O[C@@H](Oc2cc3c(O[C@@H]4O[C@H](CO)[C@@H](O)[C@H](O)[C@H]4O)cc(O)cc3[o+]c2-c2ccc(O)c(O)c2)[C@H](O)[C@@H](O)[C@@H]1O [cyanidin-3,5-diglucoside]","IC50, DNS assay",pancreatic alpha-amylase; ref 27,> 600 µg/mL
same,mode of inhibition,[1],competitively
"Oc1cc(O)c2cc(O)c(-c3ccc(O)c(O)c3)[o+]c2c1 [Cyanidin, cyanidin]","IC50, DNS assay",pancreatic alpha-amylase; ref 27,109.2 µg/mL
same,DNS Assay % inhibition,[2],7%
same,IC50,[3],491 µM
same,IC50,[3]; [5],491 µM
O=C(O)c1cc(O)c(O)c(O)c1 [gallic acid],inhibition of α-amylase,α-amylase,unable to determine inhibition
COc1cc(-c2[o+]c3cc(O)cc(O)c3cc2O[C@@H]2O[C@H](CO)[C@@H](O)[C@H](O)[C@H]2O)cc(OC)c1O [malvidin-3-glucoside],IC50,human salivary amylase,675 ± 73 µM
C[C@@H]1O[C@@H](OC[C@H]2O[C@@H](Oc3cc4c(O)cc(O)cc4[o+]c3-c3ccc(O)c(O)c3)[C@H](O)[C@@H](O)[C@@H]2O)[C@H](O)[C@H](O)[C@H]1O [cyanidin-3-rutinoside],IC50,"pancreatic alpha-amylase; ref 15, read-out: IC50, α-amylase",24.4 µM
same,mode of inhibition,[1],competitively
"O=[N+]([O-])c1ccc(O[C@H]2O[C@H](CO)[C@@H](O[C@H]3O[C@H](CO)[C@@H](O[C@H]4O[C@H](CO)[C@@H](O)[C@H](O)[C@H]4O)[C@H](O)[C@H]3O)[C@H](O)[C@H]2O)c(Cl)c1 [CNPG3, 2-chloro-4 nitrophenyl α-D-maltotrioside]",Km value (Michaelis constant) of substrate,[4]; no inhibitor,4.4 mg/mL
C[C@H]1O[C@H](O[C@H]2[C@H](O)[C@@H](O)[C@@H](O[C@H]3[C@H](O)[C@@H](O)C(O)O[C@@H]3CO)O[C@@H]2CO)[C@H](O)[C@@H](O)[C@@H]1N[C@H]1C=C(CO)[C@@H](O)[C@H](O)[C@H]1O (stereo partly shown) [acarbose],"IC50, DNS assay",pancreatic alpha-amylase; ref 15,11.7 µg/mL
same,"IC50, DNS assay",pancreatic alpha-amylase; ref 27,77.5 µg/mL
same,mode of inhibition,[4],uncompetitive enzyme inhibition
same,effect of inhibitor on Vmax,[4],decreased
same,"IC50, human pancreatic amylase",human pancreatic amylase,0.47 µg/mL
COc1cc(-c2[o+]c3cc(O)cc(O)c3cc2O[C@@H]2O[C@H](CO)[C@@H](O)[C@H](O)[C@H]2O)ccc1O [peonidin-3-glucoside],mode of inhibition,[1],competitively
same,IC50,[1],75 ± 7 µM
OC[C@H]1O[C@@H](Oc2cc3c(O)cc(O)cc3[o+]c2-c2ccc(O)c(O)c2)[C@H](O)[C@@H](O)[C@H]1O [Cyanidin-3-O-galactopyranoside],IC50,[3],414 µM
same,Direct Chromogenic Assay IC50,[3]; [5],414 ± 2.6 µg/mL
same,mode of inhibition,[4],competitive inhibitor
same,effect of inhibitor on Vmax,[4],remained constant
O=C(O)c1ccc(O)c(O)c1 [protocatechuic acid],inhibition of α-amylase,α-amylase,unable to determine inhibition
O=C(/C=C/c1ccc(O)c(O)c1)O[C@@H]1C[C@](O)(C(=O)O)C[C@@H](O)[C@H]1O [chlorogenic acid],inhibition of α-amylase,α-amylase,unable to determine inhibition
